Measured values: ChEMBL document CHEMBL1131476, “Synthesis of a methylenebis(phosphonate) analogue of mycophenolic adenine dinucleotide: a glucuronidation-resistant MAD analogue of NAD” (J Med Chem, 1998)

Tests used:
[1] = tested on: K562; experiment: Inhibitory activity against growth of human erythroleukemia […] cells; assay type: functional, cell-based
[2] = target: Inosine-5'-monophosphate dehydrogenase 2 (Homo sapiens, UniProt P12268); experiment: Inhibitory activity against human Inosine-5'-monophosphate dehydrogenase 2 (IMPDH type II isoform)
[3] = target: Inosine-5'-monophosphate dehydrogenase 1 (Homo sapiens, UniProt P20839); experiment: Inhibitory activity against human Inosine-5'-monophosphate dehydrogenase 1 (IMPDH type I isoform); Range is 33-37 nM
Chain of Inosine-5'-monophosphate dehydrogenase 1 (P20839 whole entry, canonical isoform): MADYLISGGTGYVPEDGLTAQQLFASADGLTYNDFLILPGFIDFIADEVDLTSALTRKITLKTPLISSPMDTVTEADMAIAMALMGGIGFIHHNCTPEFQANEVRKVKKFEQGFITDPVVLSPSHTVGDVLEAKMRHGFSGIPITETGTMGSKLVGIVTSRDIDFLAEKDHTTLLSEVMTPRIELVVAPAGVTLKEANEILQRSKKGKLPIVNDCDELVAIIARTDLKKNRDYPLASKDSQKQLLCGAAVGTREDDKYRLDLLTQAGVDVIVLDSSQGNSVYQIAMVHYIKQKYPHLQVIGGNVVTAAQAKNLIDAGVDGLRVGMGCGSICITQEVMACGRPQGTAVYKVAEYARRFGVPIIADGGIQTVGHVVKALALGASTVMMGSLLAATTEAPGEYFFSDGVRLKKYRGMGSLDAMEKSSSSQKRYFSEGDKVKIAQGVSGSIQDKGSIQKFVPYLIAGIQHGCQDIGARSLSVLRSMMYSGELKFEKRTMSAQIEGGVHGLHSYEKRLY

Compound	IC50 [1]	Ki [2]	Ki [3]
COc1c(C)c2c(c(O)c1C/C=C(\C)CCCO)C(=O)OC2	1500 nM		
COc1c(C)c2c(c(O)c1C/C=C(\C)CCCOP(=O)(O)CP(=O)(O)OC[C@@H]1OC(n3cnc4c(N)ncnc43)[C@@H](O)[C@H]1O)C(=O)OC2 (stereo not given in full)	1500 nM	300 nM	
COc1c(C)c2c(c(O)c1C/C=C(\C)CCC(=O)O)C(=O)OC2 [MYCOPHENOLIC ACID]	80 nM		33 nM
